# Laboratory results taken from patent publication US11174232B2, “Substituted heterocyclyl derivatives as CDK inhibitors” (Aurigene Discovery Technologies Limited, priority 2015, dated 2021).
# Target: CDK7/CycH/MNAT1 (Homo sapiens (Human), UniProt P50613)
# Assay: Biochemical Assay for CDK7 (TR-FRET kinase assay)
# Settings: 60 min pre-incubation with kinase, 1 mM ATP; for inhibition at 10 µM / % inhibition @ 10 μM: 10 μM compound
# Method: Biochemical Assay for CDK7:
# The ability of compounds to inhibit CDK7 kinase activity was tested in a TR-FRET assay using 5 nM of CDK7/CycH/MNAT1 obtained from Invitrogen, USA. Test compounds were pre-incubated with the kinase at room temperature for 60 min. After the incubation, substrate mix [100 nM Ultra-light MBP (Perkin Elmer, USA) and 1 mM ATP (Sigma)] was added. The above reaction was stopped by the addition of 40 mM EDTA after 60 minutes of kinase reaction. 1 nM Eu-labelled antiphospho-MBP antibody [Perkin Elmer, USA] was added, mixed well and the fluorescence emission at 615 nm and 665 nm [excitation at 340 nm] was measured. The final DMSO concentration in the assay was 1%. For IC50 determination, appropriate concentrations were made by ⅓^rd serial dilutions of 10 mM DMSO stock solution of test compound. All the fluorescence measurements were made in a Victor 3 Multilabel Counter [Perkin Elmer, USA]. The IC50 was determined by fitting the dose response data to sigmoidal curve fitting equation using GraphPad Prism software V5. To identify compounds that inhibit CDK7 irreversibly, time depended inhibition studies were carried by pre-incubating compound with the enzyme at three time points (20, 60 and 180 min) and carrying out assay as described above.
# The compounds were screened by the above mentioned assay procedure.
# Sequence of CDK7/CycH/MNAT1 (P50613 whole entry): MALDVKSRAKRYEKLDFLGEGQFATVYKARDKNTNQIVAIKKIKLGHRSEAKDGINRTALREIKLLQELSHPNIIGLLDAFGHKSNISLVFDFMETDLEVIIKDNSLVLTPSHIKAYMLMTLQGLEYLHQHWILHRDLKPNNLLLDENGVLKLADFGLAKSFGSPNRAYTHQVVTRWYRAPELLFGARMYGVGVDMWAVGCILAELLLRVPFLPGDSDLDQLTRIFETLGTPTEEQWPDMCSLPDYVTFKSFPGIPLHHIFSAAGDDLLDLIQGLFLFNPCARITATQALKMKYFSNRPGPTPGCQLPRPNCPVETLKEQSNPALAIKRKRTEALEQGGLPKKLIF
# Sequence of CDK7/CycH/MNAT1 (P51946 whole entry partner): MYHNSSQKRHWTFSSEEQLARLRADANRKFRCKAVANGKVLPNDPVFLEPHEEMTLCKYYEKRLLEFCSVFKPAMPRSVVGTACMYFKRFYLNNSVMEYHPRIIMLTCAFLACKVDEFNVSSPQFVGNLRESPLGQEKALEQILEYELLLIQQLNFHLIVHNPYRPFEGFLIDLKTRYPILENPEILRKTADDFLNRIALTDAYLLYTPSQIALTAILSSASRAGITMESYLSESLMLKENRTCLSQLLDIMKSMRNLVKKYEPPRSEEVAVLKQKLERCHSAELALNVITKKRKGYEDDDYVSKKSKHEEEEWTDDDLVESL
# Sequence of CDK7/CycH/MNAT1 (P51948 whole entry partner): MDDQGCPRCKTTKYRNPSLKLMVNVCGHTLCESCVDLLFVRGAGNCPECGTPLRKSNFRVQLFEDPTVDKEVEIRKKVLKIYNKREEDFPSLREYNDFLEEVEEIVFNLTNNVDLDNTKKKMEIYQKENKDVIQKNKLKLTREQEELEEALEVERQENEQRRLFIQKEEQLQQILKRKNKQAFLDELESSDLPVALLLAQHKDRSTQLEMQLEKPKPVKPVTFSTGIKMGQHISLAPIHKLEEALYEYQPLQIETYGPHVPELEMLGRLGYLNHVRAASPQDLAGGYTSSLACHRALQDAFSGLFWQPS
SMILES,inhibition at 10 µM,IC50,% inhibition @ 10 μM
"CC(C(=O)Nc1cc(C2CC2)[nH]n1)c1cccc(-c2cccc(NC(=O)/C=C/CN3CCOCC3)c2)c1 (centres unmarked) [Compound 61, (E)-N-(3′-(1-((5-cyclopropyl-1H-pyrazol-3-yl)amino)-1-oxopropan-2-yl)-[1,1′-biphenyl]-3-yl)-4-morpholinobut-2-enamide]",92%,> 100 nM,–
"C=CC(=O)Nc1ccc(-c2cccc(C(C)C(=O)Nc3cc(C4CC4)[nH]n3)c2)c(C)c1 (centres unmarked) [Compound 75, N-(3′-(1-((5-cyclopropyl-1H-pyrazol-3-yl)amino)-1-oxopropan-2-yl)-2-methyl-[1,1′-biphenyl]-4-yl)acrylamide]",78%,> 100 nM,–
"C=CC(=O)Nc1cncc(-c2cccc(C(C)C(=O)Nc3cc(C4CC4)[nH]n3)c2)n1 (centres unmarked) [Compound 79, N-(6-(3-(1-((5-cyclopropyl-1H-pyrazol-3-yl)amino)-1-oxopropan-2-yl)phenyl)pyrazin-2-yl)acrylamide]",102%,< 25 nM,–
"CC(C(=O)Nc1cc(C2CC2)[nH]n1)c1cccc(-c2ccc(NC(=O)/C=C/CN(C)C)cc2F)c1 (centres unmarked) [Compound 17, (E)-N-(3′-(1-((5-cyclopropyl-1H-pyrazol-3-yl)amino)-1-oxopropan-2-yl)-2-fluoro-[1,1′-biphenyl]-4-yl)-4-(dimethylamino)but-2-enamide]",80%,> 100 nM,–
"CC(C(=O)Nc1cc(C2CC2)[nH]n1)c1cccc(-c2ccc(NC(=O)/C=C/CN(C)C)cc2)c1 (centres unmarked) [Compound 1, (E)-N-(3′-(1-((5-cyclopropyl-1H-pyrazol-3-yl)amino)-1-oxopropan-2-yl)-[1,1′-biphenyl]-4-yl)-4-(dimethylamino)but-2-enamide]",92%,25 to 100 nM,–
"C=CC(=O)Nc1ccc(-c2cccc(C(C)C(=O)Nc3n[nH]c4ccccc34)c2)cc1 (centres unmarked) [Compound 90, N-(3′-(1-((1H-indazol-3-yl)amino)-1-oxopropan-2-yl)-[1,1′-biphenyl]-4-yl)acrylamide]",83%,> 100 nM,–
"C=CC(=O)Nc1ccc(-c2cccc(C(C)C(=O)Nc3cc(C4CC4)[nH]n3)c2)cc1F (centres unmarked) [Compound 19, N-(3′-(1-((5-cyclopropyl-1H-pyrazol-3-yl)amino)-1-oxopropan-2-yl)-3-fluoro-[1,1′-biphenyl]-4-yl)acrylamide]",97%,25 to 100 nM,–
"CC(C(=O)Nc1cc(C2CC2)[nH]n1)c1cccc(-c2cnc(NC(=O)/C=C/CN3CCOCC3)c(F)c2)c1 (centres unmarked) [Compound 63, (E)-N-(5-(3-(1-((5-cyclopropyl-1H-pyrazol-3-yl)amino)-1-oxopropan-2-yl)phenyl)-3-fluoropyridin-2-yl)-4-morpholinobut-2-enamide]",98%,25 to 100 nM,–
"C=CC(=O)NCc1ccc(-c2cccc(C(C)C(=O)Nc3cc(C4CC4)[nH]n3)c2)cn1 (centres unmarked) [Compound 74, N-((5-(3-(1-((5-cyclopropyl-1H-pyrazol-3-yl)amino)-1-oxopropan-2-yl)phenyl)pyridin-2-yl)methyl)acrylamide]",79%,> 100 nM,–
"CC(C(=O)Nc1cc(C2CC2)[nH]n1)c1ccc(F)c(-c2ccc(NC(=O)/C=C/CN(C)C)cc2)c1 (centres unmarked) [Compound 4, (E)-N-(5′-(1-((5-cyclopropyl-1H-pyrazol-3-yl)amino)-1-oxopropan-2-yl)-2′-fluoro-[1,1′-biphenyl]-4-yl)-4-(dimethylamino)but-2-enamide]",95%,> 100 nM,–
"CC(C(=O)Nc1cc(C2CC2)[nH]n1)c1cccc(-c2cncc(NC(=O)/C=C/CN3CCCC3)n2)c1 (centres unmarked) [Compound 92, (E)-N-(6-(3-(1-((5-cyclopropyl-1H-pyrazol-3-yl)amino)-1-oxopropan-2-yl)phenyl)pyrazin-2-yl)-4-(pyrrolidin-1-yl)but-2-enamide]",86%,25 to 100 nM,–
"CC(C(=O)Nc1cc(C2CC2)[nH]n1)c1cc(-c2ccc(NC(=O)/C=C/CN(C)C)cc2)ccc1F (centres unmarked) [Compound 5, (E)-N-(3′-(1-((5-cyclopropyl-1H-pyrazol-3-yl)amino)-1-oxopropan-2-yl)-4′-fluoro-[1,1′-biphenyl]-4-yl)-4-(dimethylamino)but-2-enamide]",80%,> 100 nM,–
"CN(C)C/C=C/C(=O)Nc1ccc(-c2cccc(CC(=O)Nc3cc(C4CC4)[nH]n3)c2)cc1 [Compound 7, (E)-N-(3′-(2-((5-cyclopropyl-1H-pyrazol-3-yl)amino)-2-oxoethyl)-[1,1′-biphenyl]-4-yl)-4-(dimethylamino)but-2-enamide]",84%,> 100 nM,–
"CC(C(=O)Nc1cc(C2CC2)n(C)n1)c1cccc(-c2ccc(NC(=O)/C=C/CN(C)C)cc2)c1 (centres unmarked) [Compound 6, (E)-N-(3′-(1-((5-cyclopropyl-1-methyl-1H-pyrazol-3-yl)amino)-1-oxopropan-2-yl)-[1,1′-biphenyl]-4-yl)-4-(dimethylamino)but-2-enamide]",0%,–,–
"C=CC(=O)Nc1ccc(-c2cccc(C(C)C(=O)Nc3cc(CC)[nH]n3)c2)cc1 (centres unmarked) [Compound 87, N-(3′-(1-((5-ethyl-1H-pyrazol-3-yl)amino)-1-oxopropan-2-yl)-[1,1′-biphenyl]-4-yl)acrylamide]",89%,> 100 nM,–
"CC(C)C(C(=O)Nc1cc(C2CC2)[nH]n1)c1cccc(-c2ccc(NC(=O)/C=C/CN(C)C)nc2)c1 (centres unmarked) [Compound 56, (E)-N-(5-(3-(1-((5-cyclopropyl-1H-pyrazol-3-yl)amino)-3-methyl-1-oxobutan-2-yl)phenyl)pyridin-2-yl)-4-(dimethylamino)but-2-enamide]",96%,< 25 nM,–
"CC(C(=O)Nc1cc(C2CC2)[nH]n1)c1cccc(-c2cncc(NC(=O)/C=C/CN3CCOCC3)c2)c1 (centres unmarked) [Compound 60, (E)-N-(5-(3-(1-((5-cyclopropyl-1H-pyrazol-3-yl)amino)-1-oxopropan-2-yl)phenyl)pyridin-3-yl)-4-morpholinobut-2-enamide]",99%,25 to 100 nM,–
"CC(C(=O)Nc1cc(C2CC2)[nH]n1)c1cccc(-c2ccc(NC(=O)/C=C/CN3CCC(C#N)C3)nc2)c1 (centres unmarked) [Compound 78, (E)-4-(3-cyanopyrrolidin-1-yl)-N-(5-(3-(1-((5-cyclopropyl-1H-pyrazol-3-yl)amino)-1-oxopropan-2-yl)phenyl)pyridin-2-yl)but-2-enamide]",100%,25 to 100 nM,–

# Next, values leading:
inhibition at 10 µM,IC50,% inhibition @ 10 μM,SMILES
89%,> 100 nM,–,"C=CC(=O)Nc1ccc(-c2cccc(C(C)C(=O)Nc3cc(C4CC4)[nH]n3)c2)cn1 (single isomer, unassigned) [Compound 21, N-(5-(3-(1-((5-cyclopropyl-1H-pyrazol-3-yl)amino)-1-oxopropan-2-yl)phenyl)pyridin-2-yl)acrylamide]"
87%,25 to 100 nM,–,"CC(C(=O)Nc1cc(C2CC2)[nH]n1)c1cccc(-c2ccc(NC(=O)/C=C/Cn3ccnc3)nc2)c1 (centres unmarked) [Compound 69, (E)-N-(5-(3-(1-((5-cyclopropyl-1H-pyrazol-3-yl)amino)-1-oxopropan-2-yl)phenyl)pyridin-2-yl)-4-(1H-imidazol-1-yl)but-2-enamide]"
–,< 25 nM,98%,"CC(C(=O)Nc1cc(C2CC2)[nH]n1)c1cccc(-c2ccc(NC(=O)/C=C/CN3CCOCC3)nc2)c1 (single isomer, unassigned) [Compound 12, (E)-N-(5-(3-(1-((5-cyclopropyl-1H-pyrazol-3-yl)amino)-1-oxopropan-2-yl)phenyl)pyridin-2-yl)-4-morpholinobut-2-enamide]"
89%,< 25 nM,–,"CC(C(=O)Nc1cc(C2CC2)[nH]n1)c1cccc(-c2ccc(NC(=O)/C=C/CN3CC[C@@H](F)C3)nc2)c1 (stereo partly drawn) [Compound 49, (E)-N-(5-(3-(1-((5-cyclopropyl-1H-pyrazol-3-yl)amino)-1-oxopropan-2-yl)phenyl)pyridin-2-yl)-4-((R)-3-fluoropyrrolidin-1-yl)but-2-enamide]"
94%,< 25 nM,–,"CC(C(=O)Nc1cc(C2CC2)[nH]n1)c1cccc(-c2ccc(NC(=O)/C=C/CN3CC[C@@H](F)C3)nc2)c1 (single isomer, unassigned) [Compound 50]"
91%,< 25 nM,–,"CC(C(=O)Nc1cc(C2CC2)[nH]n1)c1cccc(-c2ccc(NC(=O)/C=C/CN3CCCC3)nc2)c1 (centres unmarked) [Compound 52, (E)-N-(5-(3-(1-((5-cyclopropyl-1H-pyrazol-3-yl)amino)-1-oxopropan-2-yl)phenyl)pyridin-2-yl)-4-(pyrrolidin-1-yl)but-2-enamide]"
–,> 100 nM,90%,"CC(C(=O)Nc1cc(C2CC2)[nH]n1)c1cccc(-c2ccc(NC(=O)/C=C/CN3CC[C@@H](F)C3)nc2)c1 (single isomer, unassigned) [Compound 51]"
–,25 to 100 nM,90%,"CC(C(=O)Nc1cc(C2CC2)[nH]n1)c1cccc(-c2ccc(NC(=O)/C=C/CN3CC[C@H](F)C3)nc2)c1 (single isomer, unassigned) [Compound 48]"
90%,> 100 nM,–,"COC/C=C/C(=O)Nc1ccc(-c2cccc(C(C)C(=O)Nc3cc(C4CC4)[nH]n3)c2)cn1 (centres unmarked) [Compound 41, (E)-N-(5-(3-(1-((5-cyclopropyl-1H-pyrazol-3-yl)amino)-1-oxopropan-2-yl)phenyl)pyridin-2-yl)-4-methoxybut-2-enamide]"
